Reference: patent US20220249475A1, “COMPOUNDS AND METHOD FOR TREATING CYTOKINE RELEASE SYNDROME” (Rigel Pharmaceuticals, Inc., priority 2019, published 2022)

Key:
Assay type in all cases: cell-based
[1] = system: Dendritic cells + T cells + CD3/CD28 beads; test: CRS assay: dendritic cells + T cells + CD3/CD28 beads, IL2 ELISA; conditions: Homo sapiens; same culture; IL-2 only produced by the activated T cells
From the text: (§1) Human PBMC cells (PPA Research Group, Cat No. 15-00021); RPMI media 10% FBS; GMCSF (Peprotech, Cat No. 300-03) and IL4 (Peprotech Cat No. 200-04); White clear bottom 96 well plates (Fisher, Cat No. 07-200-587, Corning #3903); Human IL-2 DuoSet ELISA (R&D Systems, Cat No. DY202); Human IL-6 DuoSet ELISA (R&D Systems, Cat No. DY206); Cell Titer Glo reagent (Promega, Cat No. G7573); Dynabeads Human T-Activator CD3/CD28 (Fisher, Cat No. 111.61D); Anti-human CD3 (BD Biosciences, Cat No. 555336); CD28, Clone CD28.2 (Beckman Coulter Inc. Cat No. IM1376); Recombinant Human IL-2 Protein (R&D Systems, Cat No. 202-IL-500).
Human peripheral blood mononuclear cells (PBMC) (400 million) obtained from the vendor were transferred into three T-175 flasks containing 16 ml RPMI media (10% fetal bovine serum (FBS)) and incubated for 2 hours at 37° C. After 2 hours, floating PBL was removed and the cell was rinsed twice with 10 ml of media. The PBL and media was saved for T cell expansion. 16 ml of fresh RPMI media (10% FBS) containing Granulocyte Macrophage Colony—Stimulating Factor (GMCSF) (100 ng/ml) and IL4 (20 ng/ml) was added and the flask was kept in a 37° C. incubator. […]
(§2) After incubation, 80 μl of the supernatant was harvested from each well for IL6 ELISA and 80 μl of the supernatant for IL2 ELISA. […] The plate was read for luminescence intensity to determine the compound cytotoxicity.

[2] = system: Dendritic cells + T cells + CD3/CD28 beads; test: CRS assay: dendritic cells + T cells + CD3/CD28 beads, IL6 ELISA; conditions: human PBMC-derived dendritic cells, 1 hour compound pre-incubation, overnight with T cells and CD3/CD28 beads; IL-6 primarily produced by the dendritic cells
[3] = system: Dendritic cells + T cells + CD3/CD28 beads; test: CRS assay: Cell Titer Glo compound cytotoxicity; conditions: Homo sapiens, luminescence of the remaining culture, read-out: Cell Titer Glo 2 EC50
From the text: as §1
After 4 days, the dendritic cells were harvested by spinning down (1000 rpm/10 min) and aspirating the media. After resuspending the cells in fresh RPMI media (10% FBS), the cells were plated (25K/well in 50 μl) onto a white clear bottom 96 well plate. […] of RPMI media containing 2× concentrated test compound was added per well to the above cell-culture media (final concentration becomes 1×) and the plates were pre-incubated for 1 hour at 37° C. […]
as §2

SMILES	EC50 [1] [µM]	EC50 [2] [µM]	EC50 [3] [µM]
COc1cc(Nc2ncc(C)c(Nc3ccc4oc(=O)[nH]c4c3)n2)cc(C)c1F [Compound I-432, 5-(2-(4-fluoro-3-methoxy-5-methylphenylamino)-5-methylpyrimidin-4-ylamino)benzo[d]oxazol-2(3H)-one]	4.41	0.052	4.55
CCO[C@H]1CC[C@H](n2cc(NC(=O)c3csc(-c4cn[nH]c4)n3)c(-c3nc(F)ccc3F)n2)CC1 [VI-176, N-(3-(3,6-difluoropyridin-2-yl)-1-((1r,4r)-4-ethoxycyclohexyl)-1H-pyrazol-4-yl)-2-(1H-pyrazol-4-yl)thiazole-4-carboxamide]	6.9	0.195	12
